Laboratory results: article PMC7026418, “The kinase polypharmacology landscape of clinical PARP inhibitors” (Scientific Reports, 2020)
Where two headings read alike, the source gives them in different places.

Key:
Experiment in all cases: biochemical
Parameters in all cases: DiscoveRx KINOMEscan active site-directed competition binding; percent of control kinase bound to immobilised ligand
[1] = molecular target: T1, TNNI3K (Homo sapiens, UniProt Q59H18)
T1 sequence (Q59H18 1-835): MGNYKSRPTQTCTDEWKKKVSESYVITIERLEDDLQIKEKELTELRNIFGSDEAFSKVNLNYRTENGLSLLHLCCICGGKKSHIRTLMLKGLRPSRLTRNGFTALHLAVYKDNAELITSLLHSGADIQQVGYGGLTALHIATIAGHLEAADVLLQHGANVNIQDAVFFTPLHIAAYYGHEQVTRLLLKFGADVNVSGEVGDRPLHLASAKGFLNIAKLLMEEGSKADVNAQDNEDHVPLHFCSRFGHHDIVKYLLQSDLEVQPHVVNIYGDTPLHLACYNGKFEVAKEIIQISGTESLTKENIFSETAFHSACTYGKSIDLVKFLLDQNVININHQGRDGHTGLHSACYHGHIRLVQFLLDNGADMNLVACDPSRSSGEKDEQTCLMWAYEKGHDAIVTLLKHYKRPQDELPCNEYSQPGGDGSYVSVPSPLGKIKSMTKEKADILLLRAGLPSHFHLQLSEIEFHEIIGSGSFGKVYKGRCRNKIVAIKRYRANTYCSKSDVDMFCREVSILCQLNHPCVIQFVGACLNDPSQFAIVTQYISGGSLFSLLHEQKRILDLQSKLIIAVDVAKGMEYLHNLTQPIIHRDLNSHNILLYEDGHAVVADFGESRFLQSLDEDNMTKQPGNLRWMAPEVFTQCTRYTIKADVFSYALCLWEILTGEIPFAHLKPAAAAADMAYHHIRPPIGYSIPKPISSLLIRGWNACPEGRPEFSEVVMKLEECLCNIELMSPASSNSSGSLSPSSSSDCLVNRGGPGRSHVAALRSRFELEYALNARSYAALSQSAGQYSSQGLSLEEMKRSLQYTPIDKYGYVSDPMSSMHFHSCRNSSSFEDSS

[2] = molecular target: BRAF(V600E) (Homo sapiens, UniProt P15056, V600E)
Chain of BRAF(V600E) (P15056 whole entry V600E): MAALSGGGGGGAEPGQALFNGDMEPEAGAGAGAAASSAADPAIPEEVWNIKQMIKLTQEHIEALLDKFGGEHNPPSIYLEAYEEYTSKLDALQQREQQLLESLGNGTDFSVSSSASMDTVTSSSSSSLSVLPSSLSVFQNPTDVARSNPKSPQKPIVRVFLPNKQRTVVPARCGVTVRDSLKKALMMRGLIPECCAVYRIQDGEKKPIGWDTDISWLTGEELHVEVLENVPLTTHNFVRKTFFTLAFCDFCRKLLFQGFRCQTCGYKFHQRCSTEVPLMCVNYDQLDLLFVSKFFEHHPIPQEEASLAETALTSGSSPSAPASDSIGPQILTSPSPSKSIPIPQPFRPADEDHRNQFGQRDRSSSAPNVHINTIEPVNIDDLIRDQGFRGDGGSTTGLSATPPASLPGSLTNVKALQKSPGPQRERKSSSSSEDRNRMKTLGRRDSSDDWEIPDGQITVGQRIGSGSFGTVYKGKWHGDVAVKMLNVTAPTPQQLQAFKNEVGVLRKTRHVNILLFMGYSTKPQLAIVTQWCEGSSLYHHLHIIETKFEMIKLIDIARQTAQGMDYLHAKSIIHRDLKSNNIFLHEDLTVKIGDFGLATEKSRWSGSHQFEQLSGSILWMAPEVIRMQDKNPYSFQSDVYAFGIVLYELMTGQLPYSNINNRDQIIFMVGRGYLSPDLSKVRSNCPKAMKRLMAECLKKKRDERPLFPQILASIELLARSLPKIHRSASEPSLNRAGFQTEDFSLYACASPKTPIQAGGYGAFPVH

[3] = molecular target: T2, MEK6 (Homo sapiens, UniProt P52564)
T2 construct: gene MAP2K6
T2 sequence (P52564 1-334): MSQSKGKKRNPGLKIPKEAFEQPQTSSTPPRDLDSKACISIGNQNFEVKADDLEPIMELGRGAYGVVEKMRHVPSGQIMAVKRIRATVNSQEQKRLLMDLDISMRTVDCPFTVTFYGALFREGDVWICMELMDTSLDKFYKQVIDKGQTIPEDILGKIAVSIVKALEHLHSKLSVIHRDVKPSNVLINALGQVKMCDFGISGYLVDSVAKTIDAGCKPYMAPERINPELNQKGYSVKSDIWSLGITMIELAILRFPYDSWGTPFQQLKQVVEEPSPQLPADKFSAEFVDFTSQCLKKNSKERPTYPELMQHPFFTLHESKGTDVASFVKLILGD

[4] = molecular target: STK39 (Homo sapiens, UniProt Q9UEW8)
[5] = molecular target: BLK (Homo sapiens, UniProt P51451)
Chain of BLK (P51451 whole entry): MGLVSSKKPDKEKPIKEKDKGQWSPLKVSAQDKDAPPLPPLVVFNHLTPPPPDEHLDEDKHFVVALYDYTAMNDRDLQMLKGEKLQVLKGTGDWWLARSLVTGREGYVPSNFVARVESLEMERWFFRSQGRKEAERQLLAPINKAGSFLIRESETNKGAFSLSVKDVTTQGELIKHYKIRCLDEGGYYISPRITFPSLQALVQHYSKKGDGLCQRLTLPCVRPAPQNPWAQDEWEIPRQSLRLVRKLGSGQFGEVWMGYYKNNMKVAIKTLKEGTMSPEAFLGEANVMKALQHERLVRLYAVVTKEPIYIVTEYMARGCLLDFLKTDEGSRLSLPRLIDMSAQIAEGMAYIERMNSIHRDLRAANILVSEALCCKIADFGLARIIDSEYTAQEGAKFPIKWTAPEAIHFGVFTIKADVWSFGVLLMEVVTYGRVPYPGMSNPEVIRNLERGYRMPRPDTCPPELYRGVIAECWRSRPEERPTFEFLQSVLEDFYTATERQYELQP

[6] = molecular target: CHEK2 (Homo sapiens, UniProt O96017)
Chain of CHEK2 (O96017 whole entry): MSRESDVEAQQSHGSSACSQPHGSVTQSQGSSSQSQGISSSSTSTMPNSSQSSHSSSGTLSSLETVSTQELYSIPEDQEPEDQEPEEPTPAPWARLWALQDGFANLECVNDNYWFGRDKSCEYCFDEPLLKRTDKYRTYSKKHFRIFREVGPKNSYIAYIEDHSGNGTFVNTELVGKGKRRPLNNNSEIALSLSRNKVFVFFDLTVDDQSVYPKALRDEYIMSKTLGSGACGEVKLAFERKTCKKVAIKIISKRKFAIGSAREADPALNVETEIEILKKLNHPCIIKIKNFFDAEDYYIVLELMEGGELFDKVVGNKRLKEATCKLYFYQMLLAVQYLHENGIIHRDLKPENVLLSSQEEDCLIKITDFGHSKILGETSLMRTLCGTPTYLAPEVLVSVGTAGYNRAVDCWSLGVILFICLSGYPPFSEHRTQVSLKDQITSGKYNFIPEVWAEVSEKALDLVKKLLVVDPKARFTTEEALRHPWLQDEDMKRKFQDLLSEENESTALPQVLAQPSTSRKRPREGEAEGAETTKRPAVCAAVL

[7] = molecular target: RET (Homo sapiens, UniProt P07949)
Chain of RET (P07949 whole entry): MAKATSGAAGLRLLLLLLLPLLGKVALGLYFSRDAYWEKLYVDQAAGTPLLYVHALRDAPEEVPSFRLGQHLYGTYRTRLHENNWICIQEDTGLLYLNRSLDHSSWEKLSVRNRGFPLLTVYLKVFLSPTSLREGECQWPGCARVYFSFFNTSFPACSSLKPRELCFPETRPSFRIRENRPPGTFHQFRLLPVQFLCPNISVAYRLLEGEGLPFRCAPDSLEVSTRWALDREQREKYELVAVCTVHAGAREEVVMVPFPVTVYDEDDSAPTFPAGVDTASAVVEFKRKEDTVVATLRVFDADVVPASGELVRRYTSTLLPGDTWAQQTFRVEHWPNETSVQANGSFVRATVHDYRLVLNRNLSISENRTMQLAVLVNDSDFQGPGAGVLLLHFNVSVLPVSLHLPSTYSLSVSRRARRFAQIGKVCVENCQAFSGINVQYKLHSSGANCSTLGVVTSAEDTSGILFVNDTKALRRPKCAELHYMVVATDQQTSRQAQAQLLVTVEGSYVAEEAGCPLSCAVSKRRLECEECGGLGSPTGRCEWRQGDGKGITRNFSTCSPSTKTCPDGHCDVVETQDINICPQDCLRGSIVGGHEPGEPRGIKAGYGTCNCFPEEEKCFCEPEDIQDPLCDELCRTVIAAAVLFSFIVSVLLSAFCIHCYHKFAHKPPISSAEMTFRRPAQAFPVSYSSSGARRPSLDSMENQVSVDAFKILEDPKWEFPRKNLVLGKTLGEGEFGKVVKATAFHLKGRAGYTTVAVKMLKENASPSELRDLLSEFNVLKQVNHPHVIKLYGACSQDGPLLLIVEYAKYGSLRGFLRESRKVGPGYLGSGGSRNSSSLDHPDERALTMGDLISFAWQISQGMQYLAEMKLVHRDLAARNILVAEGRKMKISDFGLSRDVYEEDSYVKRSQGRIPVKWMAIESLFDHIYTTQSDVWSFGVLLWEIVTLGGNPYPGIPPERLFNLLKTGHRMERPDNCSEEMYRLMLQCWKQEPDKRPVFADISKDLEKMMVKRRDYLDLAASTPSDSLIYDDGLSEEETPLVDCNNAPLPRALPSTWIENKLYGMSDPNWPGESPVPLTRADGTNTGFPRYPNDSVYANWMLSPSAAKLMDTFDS

[8] = molecular target: SIK2 (Homo sapiens, UniProt Q9H0K1)
Chain of SIK2 (Q9H0K1 whole entry): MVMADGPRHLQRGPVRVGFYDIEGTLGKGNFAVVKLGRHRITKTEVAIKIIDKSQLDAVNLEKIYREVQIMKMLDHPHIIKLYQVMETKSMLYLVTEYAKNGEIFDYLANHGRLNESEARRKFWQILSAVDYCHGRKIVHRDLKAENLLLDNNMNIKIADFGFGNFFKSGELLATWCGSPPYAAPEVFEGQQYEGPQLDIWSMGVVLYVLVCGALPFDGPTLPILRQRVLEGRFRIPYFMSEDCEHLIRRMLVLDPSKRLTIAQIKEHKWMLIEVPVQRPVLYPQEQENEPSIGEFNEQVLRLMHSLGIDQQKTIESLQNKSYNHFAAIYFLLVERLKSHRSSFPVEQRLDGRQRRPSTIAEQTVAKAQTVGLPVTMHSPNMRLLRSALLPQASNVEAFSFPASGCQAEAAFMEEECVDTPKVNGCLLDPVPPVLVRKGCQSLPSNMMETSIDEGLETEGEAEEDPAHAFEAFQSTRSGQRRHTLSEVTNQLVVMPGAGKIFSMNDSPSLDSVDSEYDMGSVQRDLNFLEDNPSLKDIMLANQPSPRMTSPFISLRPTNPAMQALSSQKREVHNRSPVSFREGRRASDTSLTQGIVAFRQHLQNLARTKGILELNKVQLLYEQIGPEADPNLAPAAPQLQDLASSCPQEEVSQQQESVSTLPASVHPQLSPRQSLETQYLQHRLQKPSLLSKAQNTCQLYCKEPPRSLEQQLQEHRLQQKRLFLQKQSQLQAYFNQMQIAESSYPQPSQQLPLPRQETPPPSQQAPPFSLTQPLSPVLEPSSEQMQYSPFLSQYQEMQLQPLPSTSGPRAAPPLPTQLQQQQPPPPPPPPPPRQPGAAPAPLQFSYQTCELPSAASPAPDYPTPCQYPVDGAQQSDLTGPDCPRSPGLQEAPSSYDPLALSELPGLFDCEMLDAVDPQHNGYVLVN

[9] = molecular target: PIP5K1A (Homo sapiens, UniProt Q99755)
Chain of PIP5K1A (Q99755 whole entry): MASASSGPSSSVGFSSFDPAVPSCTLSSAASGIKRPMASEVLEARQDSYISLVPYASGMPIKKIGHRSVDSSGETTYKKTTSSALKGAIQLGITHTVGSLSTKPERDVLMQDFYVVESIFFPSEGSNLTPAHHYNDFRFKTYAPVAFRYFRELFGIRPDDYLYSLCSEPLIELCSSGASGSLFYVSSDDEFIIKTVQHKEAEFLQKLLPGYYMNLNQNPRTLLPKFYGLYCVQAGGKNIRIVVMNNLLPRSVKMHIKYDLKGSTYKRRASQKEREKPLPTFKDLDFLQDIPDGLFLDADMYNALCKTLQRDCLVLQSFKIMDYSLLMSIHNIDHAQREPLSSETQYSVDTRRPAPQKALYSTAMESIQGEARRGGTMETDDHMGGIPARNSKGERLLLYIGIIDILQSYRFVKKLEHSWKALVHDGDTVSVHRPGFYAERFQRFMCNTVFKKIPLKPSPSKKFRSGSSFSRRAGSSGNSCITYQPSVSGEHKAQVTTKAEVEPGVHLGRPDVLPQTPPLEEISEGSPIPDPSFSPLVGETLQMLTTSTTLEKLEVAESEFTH

[10] = molecular target: T3, ABL1(Y253F)-phosphorylated (Homo sapiens, UniProt P00519, Y253F)
T3 construct: phosphorylated

[11] = read-out: Niraparib (MK-4827) / %Ctrl @ 10000nM
[12] = read-out: Olaparib / %Ctrl @ 10000nM
[13] = read-out: Rucaparib / %Ctrl @ 10000nM, binding competition, % of control
[14] = read-out: Talazoparib (BMN 673) / %Ctrl @ 10000nM

## NC(=O)c1cccc2cn(-c3ccc([C@@H]4CCCNC4)cc3)nc12 [Niraparib]
[1]; [11]
  percent of control binding at 10 µM: 95%
[2]; [11]
  percent of control binding at 10 µM: 100%
[3]; [11]
  percent of control binding at 10 µM: 95%
[4]; [11]
  percent of control binding at 10 µM: 70%
[5]; [11]
  percent of control binding at 10 µM: 72%
[6]; [11]
  percent of control binding at 10 µM: 89%
[7]; [11]
  percent of control binding at 10 µM: 83%
[8]; [11]
  percent of control binding at 10 µM: 91%
[9]; [11]
  percent of control binding at 10 µM: 100%
[10]; [11]
  percent of control binding at 10 µM: 57%

## O=C(c1cc(Cc2n[nH]c(=O)c3ccccc23)ccc1F)N1CCN(C(=O)C2CC2)CC1 [Olaparib]
[1]; [12]
  percent of control binding at 10 µM: 84%
[2]; [12]
  percent of control binding at 10 µM: 87%
[3]; [12]
  percent of control binding at 10 µM: 86%
[4]; [12]
  percent of control binding at 10 µM: 92%
[5]; [12]
  percent of control binding at 10 µM: 90%
[6]; [12]
  percent of control binding at 10 µM: 94%
[7]; [12]
  percent of control binding at 10 µM: 100%
[8]; [12]
  percent of control binding at 10 µM: 100%
[9]; [12]
  percent of control binding at 10 µM: 100%
[10]; [12]
  percent of control binding at 10 µM: 79%

## CNCc1ccc(-c2[nH]c3cc(F)cc4c3c2CCNC4=O)cc1 [Rucaparib]
[1]; [13]
  percent of control binding at 10 µM: 92%
[2]; [13]
  percent of control binding at 10 µM: 73%
[3]; [13]
  percent of control binding at 10 µM: 81%
[4]; [13]
  percent of control binding at 10 µM: 73%
[5]; [13]
  percent of control binding at 10 µM: 91%
[6]; [13]
  percent of control binding at 10 µM: 76%
[7]; [13]
  percent of control binding at 10 µM: 98%
[8]; [13]
  percent of control binding at 10 µM: 96%
[9]; [13]
  percent of control binding at 10 µM: 100%
[10]; [13]
  percent of control binding at 10 µM: 69%

## Cn1ncnc1[C@H]1c2n[nH]c(=O)c3cc(F)cc(c23)N[C@@H]1c1ccc(F)cc1 [Talazoparib]
[1]; [14]
  percent of control binding at 10 µM: 100%
[2]; [14]
  percent of control binding at 10 µM: 68%
[3]; [14]
  percent of control binding at 10 µM: 83%
[4]; [14]
  percent of control binding at 10 µM: 100%
[5]; [14]
  percent of control binding at 10 µM: 99%
[6]; [14]
  percent of control binding at 10 µM: 93%
[7]; [14]
  percent of control binding at 10 µM: 100%
[8]; [14]
  percent of control binding at 10 µM: 100%
[9]; [14]
  percent of control binding at 10 µM: 88%
[10]; [14]
  percent of control binding at 10 µM: 100%
